Columns and labels:
[1] = system: aldose reductase; conditions: literature; cited from earlier work
[2] = system: dulcitol accumulation in tissues of galactose-fed rats (aldose reductase inhibiting property); test: dulcitol accumulation in lens, sciatic nerve and diaphragm of galactosemic rats; type: in vivo, male Sprague-Dawley rats
From the text: Such experiments are exemplified hereinbelow after the listing of the following general comments pertaining to these experiments:
(a) Four or more groups of six male rats, 50-70 g, Sprague-Dawley strain, were used. The first group, the control group, was fed a mixture of laboratory chow (roden Laboratory Chow, Purina) and glucose at 20% (w/w %) concentration. The untreated galactosemic group was fed a similar diet in which galactose is substituted for glucose. The third group was fed a diet prepared by mixing a given amount of the test compound with the galactose containing diet. The concentration of galactose in the diet of the treated groups was the same as that for the untreated galactosemic group.
(b) After four days, the animals were killed by decapitation. The eyeballs were removed and punctured with a razor blade; the freed lenses were rolled gently on filter paper and weighed. The sciatic nerves were dissected as completely as possible and weighed. Both tissues when frozen can be kept up to two weeks before being analyzed for dulcitol.
Only two minor reagent changes were made: (a) The rinsing mixture was an aqueous 5% (w/v) trichloroacetic acid solution and (b) the stock solution was prepared by dissolving 25 mg of dulcitol in 100 ml of an aqueous trichloroacetic acid solution. [N.B.: For each experiment the average value found in the tissue from rats fed the glucose diet was subtracted from the individual values found in the corresponding tissue in galactose-fed rats to obtain the amount of polyol accumulated.] […] In the present case the procedure of Hayman and Kinoshita was modified in that the final chromatography step was omitted in the preparation of the enzyme from bovine lens.
The figures under L, N and D represent the percentage decrease of dulcitol accumulation in the tissues of the lens, sciatic nerve and diaphragm, respectively, for treated rats as compared to untreated rats.

[3] = 26 mg/kg/day in diet, 4 days, vs untreated galactosemic rats

Compound: O=C(O)CN1C(=O)c2cccc3cccc(c23)C1=O [1,3-Dioxo-1H-benz[de]isoquinoline-2(3H)-acetic acid]
- aldose reductase inhibition, in words [1]: effective inhibitor of aldose reductase

Compound: COc1ccc2c(C(=S)N(C)CC(N)=O)cccc2c1C(F)(F)F [compound 1, N-[[5-(trifluoromethyl)-6-methoxy-1-naphthalenyl]-thioxomethyl]-N-methylglycinamide]
- in vivo results compared with compound No. 9 (tolrestat) ([2]; 5 mg/kg/day): comparable results
- % lowering dulcitol accumulation in vivo, N (sciatic nerve) ([2]; 5 mg/kg/day in diet, 4 days, vs untreated galactosemic rats): 54%

Compound: COc1ccc2c(C(=S)N(C)CC(=O)N(C)C)cccc2c1C(F)(F)F [compound 3, 2-[[[6-Methoxy-5-(trifluoromethyl)-1-naphthalenyl]thioxomethyl]methylamino]-N,N-dimethylacetamide]
- % lowering dulcitol accumulation in vivo, N (sciatic nerve) ([2]; 55 mg/kg/day in diet, 4 days, vs untreated galactosemic rats): 48%

Compound: COC(=N)NC(=O)CN(C)C(=S)c1cccc2c(C(F)(F)F)c(OC)ccc12 [compound 4, N--[[[[5-(trifluoromethyl)-6-methoxy-1-naphthalenyl]thioxomethyl]-N--methylamino]acetyl]carbamimidic acid, methyl ester]
- % lowering dulcitol accumulation in vivo, N (sciatic nerve) [2, 3]: 62%

Compound: COC(=O)NC(=O)CN(C)C(=S)c1cccc2c(C(F)(F)F)c(OC)ccc12 [compound 6, [[[5-(Trifluoromethyl)-6-methoxy-1-naphthalenyl]thioxomethyl](methylamino)acetyl]carbamic acid, Methyl Ester]
- % lowering dulcitol accumulation in vivo, N (sciatic nerve) ([2]; 8.4 mg/kg/day in diet, 4 days, vs untreated galactosemic rats): 33%
- % lowering dulcitol accumulation in vivo, N (sciatic nerve) [2, 3]: 93%

Compound: COc1ccc2c(C(=O)N(C)CC(N)=O)cccc2c1C(F)(F)F [compound 8, N-[[6-Methoxy-5-(trifluoromethyl)-1-naphthalenyl]carbonyl]-N-methylglycinamide]
- % lowering dulcitol accumulation in vivo, D (diaphragm) ([2]; diaphragm, 28 mg/kg/day in diet, 4 days, vs untreated galactosemic rats): 42%
- % lowering dulcitol accumulation in vivo, N (sciatic nerve) ([2]; 28 mg/kg/day in diet, 4 days, vs untreated galactosemic rats): 66%

Compound: O=C1NC(=O)[C@@]2(CCOc3ccc(F)cc32)N1 [sorbinil, (S)-6-Fluoro-2,3-dihydrospiro(4H-1-benzopyran-4,4'-imidazolidine)-2',5'-dione]
- aldose reductase inhibition, in words [1]: aldose reductase inhibiting properties

From patent US4672059A, “N-[[5-(trifluoromethyl)-6-methoxy-1-naphthalenyl]-thioxomethyl and carbonyl]-N-methylglycinamides” (American Home Products Corporation, priority 1985, dated 1987)
